Measurements published in patent publication US20220338473A1, “USE OF BENZYL ALCOHOL AS A HERBICIDE” (INNOVI, priority 2019, published 2022).

How the values were obtained:
Format in all cases: in vivo
Carnation [1] = experiment: Foliar application (spraying) on potted plants; details: 8 g benzyl alcohol (400 L/Ha) in 16 g total (800 L/ha)
Experimental: (§1) Assays were carried out on different plants by foliar application (spraying) to evaluate the herbicide function, its foliar application mode and its speed of action.
(§2) The assays were carried out on potted plants. The application of the product is carried out with a trigger spray bottle which makes it possible to spray 1 g of product per spraying as microdroplets.
(§3) The plants were sprinkled with different quantities of water containing different quantities of pure benzyl alcohol (PanReac AppliChem—ITW Reagents). The untreated (control) plants are sprinkled with the same total quantity, but of water only.
(§4) The collapsing of the plant, the colour intensity of the plant and the diameter of the plant were measured in the following manner: • Collapsing of the plant: the collapsing was evaluated on a scale of 1 to 5. A score of 5 corresponds to the state of the plant habit at T0 and 1 corresponds to a total collapsing of the plant. • Colour intensity: the colour of the plant (leaves and flowers) is evaluated on a scale of 1 to 5. A score of 5 corresponds to the colour intensity of the plant at T0 and a score of 1 corresponds to a total discoloration of the plant (white or brown according to the type of plant). • Diameter of the plant: the diameter of the plant corresponds to the surface area occupied by the plant seen from above and is evaluated by a score of 1 to 5. A score of 5 corresponds to the diameter of the plant at T0 and a score of 1 corresponds to the size of the pot (or smaller than this).

Dahlia = experiment: Foliar application (spraying) on potted plants; details: 2 g benzyl alcohol (100 L/Ha) in 20 g total (1000 L/ha)
Experimental: as §1, §2, §3, §4

Ivy = experiment: Foliar application (spraying) on potted plants; details: 16 g benzyl alcohol (800 L/Ha) in 20 g total (1000 L/Ha)
Experimental: as §1, §2, §3, §4

Pink petunia = experiment: Foliar application (spraying) on potted plants; details: 0.4 g benzyl alcohol (20 L/Ha) in 4 g total (200 L/ha)
Experimental: as §1, §2, §3, §4

Purple horned pansy = experiment: Foliar application (spraying) on potted plants; details: 1 g benzyl alcohol (50 L/Ha) in 12 g total (600 L/Ha)
Experimental: as §1, §2, §3, §4

Sage = experiment: Foliar application (spraying) on potted plants; details: 4 g benzyl alcohol (200 L/Ha) in 10 g total (500 L/Ha)
Experimental: as §1, §2, §3, §4

White horned pansy = experiment: Foliar application (spraying) on potted plants; details: 12 g benzyl alcohol (600 L/Ha) in 12 g total (600 L/Ha)
Experimental: as §1, §2, §3, §4

White petunia [2] = experiment: Foliar application (spraying) on potted plants; details: 0.1 g benzyl alcohol (5 L/Ha) in 6 g total (300 L/Ha)
Experimental: as §1, §2, §3, §4

Carnation [3] = experiment: Systemic application through contact with the above-ground parts (half of plant treated); details: potted, only one half sprayed, 4 g benzyl alcohol (200 L/Ha) in 4 g total (200 L/Ha)
Experimental: (§5) Assays were carried out on different plants by treatment on a fraction of the above-ground parts.
(§6) The assays were carried out on potted plants.
(§7) The systemic action was evaluated on several types of plants by treatment on a fraction of its above-ground parts.
(§8) The application of the product is carried out with a trigger spray bottle which makes it possible to spray 1 g of product per spraying, as microdroplets.
(§9) The treated plants are sprinkled on only one half, with different quantities of water comprising different quantities of pure benzyl alcohol (PanReac AppliChem—ITW Reagents). The untreated (control) plants are sprinkled with the same total quantity, but of water only.
(§10) The collapsing of the plant, the colour intensity and the diameter of the plant were measured as indicated in Example 1. The systemic effectiveness time was also measured in the following manner: • Systemic effectiveness time: 50% of the plant is initially treated with the product. The time necessary to see the first effects (systemically) appear on the part not treated (systemically) is determined.

Grass = experiment: as above; details: potted, only one half sprayed, 16 g benzyl alcohol (800 L/Ha) in 20 g total (1000 L/Ha)
Experimental: as §5, §6, §7, §8, §9, §10

Horned pansy = experiment: as above; details: potted, only one half sprayed, 0.1 g benzyl alcohol (5 L/Ha) in 12 g total (600 L/Ha)
Experimental: as §5, §6, §7, §8, §9, §10

Hypoestes = experiment: as above; details: potted, only one half sprayed, 1 g benzyl alcohol (50 L/Ha) in 8 g total (400 L/Ha)
Experimental: as §5, §6, §7, §8, §9, §10

Osteospermum = experiment: as above; details: potted, only one half sprayed, 2 g benzyl alcohol (100 L/Ha) in 2 g total (100 L/Ha)
Experimental: as §5, §6, §7, §8, §9, §10

White petunia [4] = experiment: as above; details: potted, only one half sprayed, 10 g benzyl alcohol (500 L/Ha) in 16 g total (800 L/Ha)
Experimental: as §5, §6, §7, §8, §9, §10

OCc1ccccc1 [benzyl alcohol]
144 h: B: collapsing (score and time): time to pass from score 5 (T0) to score 1 (Grass) | C: colour intensity (score and time): time to pass from score 5 (T0) to score 1 (Horned pansy) | D: diameter (score and time): time to pass from score 5 (T0) to score 1 (Hypoestes) | B: collapsing (score and time): time to pass from score 5 (T0) to score 1 (Osteospermum) | D: diameter (score and time): time to pass from score 5 (T0) to score 1 (Osteospermum)
at 72 h: A: systemic effectiveness time (whole plant affected) (Carnation [3])
168 h: D: diameter (score and time): time to pass from score 5 (T0) to score 1 (Grass) | B: collapsing (score and time): time to pass from score 5 (T0) to score 1 (Horned pansy) | D: diameter (score and time): time to pass from score 5 (T0) to score 1 (Horned pansy)
1 to 120 h: Diameter of treated plant (score and time): time to pass from score 5 (T0) to score 1 (White petunia [2])
at 24 h: A: systemic effectiveness time (whole plant affected) (White petunia [4])
1 to 48 h: Diameter of treated plant (score and time): time to pass from score 5 (T0) to score 1 (Carnation [1]) | Collapsing of treated plant (score and time): time to pass from score 5 (T0) to score 1 (Dahlia) | Colour intensity of treated plant (score and time): time to pass from score 5 (T0) to score 1 (Ivy) | Colour intensity of treated plant (score and time): time to pass from score 5 (T0) to score 1 (Pink petunia) | Collapsing of treated plant (score and time): time to pass from score 5 (T0) to score 1 (Purple horned pansy) | Diameter of treated plant (score and time): time to pass from score 5 (T0) to score 1 (Purple horned pansy) | Collapsing of treated plant (score and time): time to pass from score 5 (T0) to score 1 (Sage) | Diameter of treated plant (score and time): time to pass from score 5 (T0) to score 1 (Sage)
1 to 24 h: Collapsing of treated plant (score and time): time to pass from score 5 (T0) to score 1 (Carnation [1]) | Colour intensity of treated plant (score and time): time to pass from score 5 (T0) to score 1 (Carnation [1]) | Colour intensity of treated plant (score and time): time to pass from score 5 (T0) to score 1 (Dahlia) | Colour intensity of treated plant (score and time): time to pass from score 5 (T0) to score 1 (Purple horned pansy) | Colour intensity of treated plant (score and time): time to pass from score 5 (T0) to score 1 (Sage)
at 120 h: A: systemic effectiveness time (whole plant affected) (Horned pansy)
1 to 72 h: Diameter of treated plant (score and time): time to pass from score 5 (T0) to score 1 (Dahlia) | Collapsing of treated plant (score and time): time to pass from score 5 (T0) to score 1 (Pink petunia)
1 to 96 h: Collapsing of treated plant (score and time): time to pass from score 5 (T0) to score 1 (Ivy) | Diameter of treated plant (score and time): time to pass from score 5 (T0) to score 1 (Ivy) | Diameter of treated plant (score and time): time to pass from score 5 (T0) to score 1 (Pink petunia) | Collapsing of treated plant (score and time): time to pass from score 5 (T0) to score 1 (White petunia [2]) | Colour intensity of treated plant (score and time): time to pass from score 5 (T0) to score 1 (White petunia [2])
at 96 h: A: systemic effectiveness time (whole plant affected) (Grass) | A: systemic effectiveness time (whole plant affected) (Hypoestes) | A: systemic effectiveness time (whole plant affected) (Osteospermum)
96 h: C: colour intensity (score and time): time to pass from score 5 (T0) to score 1 (Carnation [3])
120 h: D: diameter (score and time): time to pass from score 5 (T0) to score 1 (Carnation [3]) | C: colour intensity (score and time): time to pass from score 5 (T0) to score 1 (Grass) | B: collapsing (score and time): time to pass from score 5 (T0) to score 1 (Hypoestes) | C: colour intensity (score and time): time to pass from score 5 (T0) to score 1 (Hypoestes) | C: colour intensity (score and time): time to pass from score 5 (T0) to score 1 (Osteospermum)
48 h: B: collapsing (score and time): time to pass from score 5 (T0) to score 1 (White petunia [4]) | C: colour intensity (score and time): time to pass from score 5 (T0) to score 1 (White petunia [4]) | D: diameter (score and time): time to pass from score 5 (T0) to score 1 (White petunia [4])
86 h: B: collapsing (score and time): time to pass from score 5 (T0) to score 1 (Carnation [3])
1 to 6 h: Collapsing of treated plant (score and time): time to pass from score 5 (T0) to score 1 (White horned pansy) | Colour intensity of treated plant (score and time): time to pass from score 5 (T0) to score 1 (White horned pansy) | Diameter of treated plant (score and time): time to pass from score 5 (T0) to score 1 (White horned pansy)
